Assay results published in patent publication US20260091030A1, “HIGH-DOSE NALOXONE FORMULATION” (SRI INTERNATIONAL, priority 2022, published 2026).

Legend:
[1] = Initial pH stability of Naloxone hydrochloride in 10 mM buffers pH 3.0-10.6, 7 days (concentration, pH, Noroxymorphone by HPLC); format: physicochemical
Method: FIG. 3 is a graph that depicts the concentration of Naloxone in various buffers at t=0 and t=7. The t=7 represents samples stored at either 40° C. or 60° C. for up to 7 days. […] The 15 mg/ml was chosen for pH stability studies and a final formulation of Naloxone is planned to be at 10 mg/ml strength. The maximum possible solubility of drug substance at various buffers will be performed in a “pH solubility” study. […] Naloxone precipitated in solution maintained at pH 7.4-10.6. The glycine-sodium hydroxide buffer system fared slightly better, however not as well as the buffers that maintained pH at 3.0-6.5. It is likely that buffer strength higher than 10 mM is required for pH 7.0-11 buffer systems. […] Based on the pKa values, solubility of Naloxone is expected to be higher at lower pH conditions.
FIG. 4 is a graph that depicts the change in pH of Naloxone in various buffers t=0 and t=7. The t=7 represents samples stored at either 40° C. or 60° C. for up to 7 days. FIG. 4 follows the change in pH for the buffered naloxone samples as a function of time and temperature of storage. It appears that higher pH instability and higher temperature degradations are concerns for Naloxone formulations. Optimum buffering of Naloxone appears to occur at pH 3-4.6; at the molarity tested.
FIG. 5 is a graph that depicts pH-stability of Naloxone after 7 days at room temperature by showing Naloxone and Noroxymorphone concentrations in various buffers assayed by HPLC. Temperature and duration of sample storage are at ambient temperature for 7 days.
FIG. 6 is a graph that depicts pH-stability of Naloxone after 7 days at 40° C. and 75% relative humidity by showing Naloxone and Noroxymorphone concentrations in various buffers assayed by HPLC. Temperature and duration of sample storage are at 40° C. and 75% relative humidity for 7 days. FIG. 6 follows up on the conclusions drawn from the experiment conducted that underlies FIG. 5. Raising the temperature incudes greater formation of Noroxymorphone, and this effect is more pronounced in formulations with a higher pH.
FIG. 7 is a graph that depicts pH-stability of Naloxone after 7 days at 60° C. by showing Naloxone and Noroxymorphone concentrations in various buffers assayed by HPLC. Temperature and duration of sample storage are at 60° C. and humidity was not maintained for 7 days. At even higher temperatures, Noroxymorphone was detected in all formulations across all respective pHs.
Buffers used in intramuscular formulations range from 1-100 mM, but lower molar strengths are known to cause less myotoxicity resulting in less “pain” at the site of injection (Napaporn et al., Pharm. Dev. Technol. 5(1): 123-30 (2000). For the purpose of these initial pH stability experiment, a buffer strength of 10 mM was chosen. Buffers tested ranged from pH 3.0-10.6. Intramuscular formulations below pH 3.0 are extremely rare, owing to excessive acidity which can cause a burning sensation. Table 1 lists the various buffer systems used for this study.
Buffers were created and mixed to a concentration of 10 mM with the pH stabilized. […] Buffers tested ranged from pH 3.0-10.6. Intramuscular formulations below pH 3.0 are rare due to discomfort associated with the injection site.

physchem = conditions: thermodynamic from solid
[2] = pH-stability with and without buffering agents under nitrogen gas overlay / excipient compatibility study; format: physicochemical
Method: FIG. 16 is a graph showing pH fluctuations in samples under nitrogen gas overlay, specifically change in pH of Naloxone solutions in water and buffers at pH 3.0 and 4.6 on Day 0 and Day 7. The Day 7 represents samples stored at either room temperature, 40° C. and 75% relative humidity or 60° C. or 25° C. and 60% relative humidity (in amber vials) for up to 7 days.
Samples prepared for pH-Stability of naloxone with and without buffering agents (citrate and acetate at pH 3.0 and pH 4.6 respectively) under nitrogen gas overlay were left at 40° C.±2° C./75%±5% relative humidity (RH) and at 60° C. for a total of 5 weeks for this excipient compatibility study. A stability storage chamber was used for 40° C.±2° C./75%±5% while a regular oven was used for the 60° C. samples. Briefly, naloxone samples were prepared in 20 ml of water for injection or freshly prepared 10 mM citrate buffer and/or acetate buffer in 25 ml volumetric flask. […] The pH of the naloxone solutions was adjusted to 3.0 and 4.6 with 0.1N HCl solution. Samples were diluted up to the 25 ml mark with water for injection or citrate buffer pH 3.0 or acetate buffer pH 4.6. These naloxone solutions were filtered using 0.22 μm, 13 mm, PVDF (Pall scientific) syringe filters and pH of the filtrate was measured. The filtered solution was aliquoted into 2.0 ml clear, sterile, Type-I glass vials and closed with 13 mm red rubber closures crimped with aluminum blue flip cap seals. All vials were overlaid with nitrogen gas (filtered with 0.22u PTFE, Acro®50 Vent In-Line filter, Pall scientific) before sealing and stored at 40° C.±2° C./75%±5% relative humidity (RH) or 60° C. for 5 weeks. These samples were evaluated for pH, assay and impurities of naloxone at intervals of T=0, 1 week and T=5 weeks. […] These samples were analyzed at T=2 weeks and T=5 weeks for pH, assay and impurities for naloxone. […]
The pH and assay of naloxone for excipient compatibility samples stored at 40° C.±2° C./75%±5% RH and 60° C. on T=0-day, 1 week and T=5 weeks were evaluated.

## C=CCN1CC[C@]23c4c5ccc(O)c4O[C@H]2C(=O)CC[C@@]3(O)[C@H]1C5.Cl [Naloxone hydrochloride, (−)-17-Allyl-4, 5 α-epoxy-3,14-dihydroxymorphinan-6-one hydrochloride]
[1]; 10 mM buffer systems at pH 7.4 (sodium phosphate monobasic/dibasic) and pH 10.6 (carbonate-bicarbonate)
  dissolution at 15 mg/ml in buffer: did not dissolve efficiently
[1]; 10 mM buffers, up to 7 days at 40° C. or 60° C.
  pH of optimum buffering: 3-4.6
[1]; 7 days at ambient temperature, pH 7.4 sodium phosphate and pH 10 glycine buffer versus pH lower than 6.5
  Noroxymorphone detected by HPLC: Greater amounts of Noroxymorphone were detected
[1]; citrate buffer at pH 3, 7 days at 60° C.
  Noroxymorphone formation by HPLC: significantly less Noroxymorphone formation than all of the other formulations tested
[1]; solution maintained at pH 7.4-10.6
  precipitation in solution: precipitated
physchem; pH 5, aqueous buffer
  solubility: 204 mg/mL
physchem; pH 10, aqueous buffer
  solubility: 90.5 mg/mL
[2]; 10 mM citrate and acetate buffers at pH 3.0 and 4.6, nitrogen overlay, seven days at room temperature, 40° C./75% RH, 60° C., 25° C./60% RH (amber vials)
  change in pH: no change in pH
[2]; without buffers at pH 3.0, nitrogen overlay, seven days at room temperature, 40° C./75% RH, 60° C., 25° C./60% RH (amber vials)
  change in pH: no change in pH
[2]; without buffers at pH 4.6, nitrogen overlay, seven days
  change in pH: increased
